Experimental data published in patent publication US20150306165A1, “PLANT EXTRACT COMPOSITION FOR INHIBITING ADIPOCYTES, REDUCING BODY FAT, PROMOTING WEIGHT LOSS AND INCREASING LIPID METABOLISM AS WELL AS APPLICATION THEREOF” (CALIWAY BIOMEDICAL CO., LTD., priority 2014, published 2015).
Marks after values point to notes of the source that are not given here.

Key:
[1] = Animal assay (I): high fat diet rats, weight gain and body fat; type: in vivo, Sprague-Dawley (SD) male rats; conditions: positive control group
Description: Sprague-Dawley (SD) male rats were used in this example. There were six groups for test, respectively as a normal group, an obese group, a positive control group (Orlistat®, 18.6 mg/kg BW), a low-dose experimental group (the formulation LB004: 223.2 mg/kg BW), a medium-dose experimental group (the formulation LB004: 446.4 mg/kg BW), and a high-dose experimental group (the formulation LB004: 892.8 mg/kg BW). Ten male rats were used in each group. During the 8-week experiment period, high fat diets were fed ad libitum for all groups except […]. Three formulation LB004 doses of the present invention were orally given simultaneously during the experiment and body weight loss and lipid mass reduction were evaluated. Bodyweight, food and water intake were recorded weekly. In the end of the test, total amount of fat and the percentage of fat dry weight were determined.
In the end of the experiment, the rats were sacrificed. Epididymis fat, perinephric fat, and mesenteric fat were weighted and the total amount of internal fat was calculated. In addition, the fat of groin and the extraperitoneal fat were weighted to calculate the amount of subcutaneous fat.
In addition, the wet weights of rat bodies were weighed. Then the rat bodies were dried in an oven at 105° C. to constant dry weight for measuring dry weights of the rat bodies. The rat bodies were pulverized by uniform homogenizer. The percentage of dry weight and the amount of crude fat of whole animals is calculated by diethyl ether extraction at 2 to 3 different sampling points.

[2] = Animal assay (IV): high fat diet mice, 8 weeks, weight gain and fat; type: in vivo, B6 strain male mice
Description: B6 strain male mice were used in this example. There were five groups for test, respectively as the obese group, the resveratrol (61.5 mg/kg BW), the green tea extract (123 mg/kg BW), and experimental groups such as the formulation LB001 (338.25 mg/kg BW) and the formulation LB0008 (326 mg/kg BW). Five male animals were used in each group. During the test, high fat diets and experimental substrates were fed for all groups to induce obesity during eight weeks. In the experimental duration, weight and the average daily intake were recorded. In the end of the experiment, the mice were sacrificed to weight epididymis fat, perinephric fat, and mesenteric fat and calculate the total amount of visceral fat; groin fat and extra-abdominal fat were weighed to calculate the amount of subcutaneous fat.

| Compound | fat (dry weight) ([1]; 18.6 mg/kg B.W., 8 weeks) | total fat mass ([1]; 18.6 mg/kg B.W., 8 weeks) | total weight gain ([1]; 18.6 mg/kg B.W., 8 weeks) | body fat decrease compared with the obese group ([1]; 18.6 mg/kg BW) | body weight decline compared with the obese group ([1]; 18.6 mg/kg BW) | decrease of percentage of fat dry weight compared with the obese group ([1]; 18.6 mg/kg BW) | visceral fat, subcutaneous fat, and total fat mass compared with the obese group ([2]; resveratrol 61.5 mg/kg BW, FIG. 10) | inhibitory effect on weight gain ([2]; resveratrol alone 61.5 mg/kg BW, FIG. 9) |
| --- | --- | --- | --- | --- | --- | --- | --- | --- |
| CCCCCCCCCCC[C@@H](C[C@@H]1OC(=O)[C@H]1CCCCCC)OC(=O)[C@H](CC(C)C)NC=O [Orlistat®, Orlistat] | 31.6 ± 6.0^a % | 38.1 ± 8.8^c g | 240.1 ± 24.4^c g | 23.9% | 12.0% | 17.4% | – | – |
| Oc1ccc(C=Cc2cc(O)cc(O)c2)cc1 [resveratrol] | – | – | – | – | – | – | no statistical difference | poor and had no statistical difference from the obese group |
